In PMC10535004, “Investigation of Peptides for Molecular Recognition of C-Reactive Protein–Theoretical and Experimental Studies” (Analytical Chemistry, 2023):
Entries after “also recorded” stand apart in the source; their conditions may differ.

Legend:
[1] = PM-IRRAS of peptide layers on gold; type: physicochemical; conditions: for secondary structure on gold (in words): amide I band, peptide 100 μg mL-1 in PBS
Experimental: (§1) 2.2. PM-IRRS analysis (polarisation modulation infrared reflection absorption
(§2) Three types o f samples were prepared and analysed: (a) peptide solution in PBS (100 μg mL-1), (b)
(§3) CRP solution in PBS (50 μg mL-1), and (c) protein -peptide complex. The complex was prepared

[2] = TEM analysis of peptide fibers; type: physicochemical; conditions: 1 mg mL-1 in PBS
Experimental: 2. Surface characterisation
Suspensions of selected phages (10^9 pfu mL-1) in PBS and corresponding peptides (1 mg mL-1) in PBS were adsorbed onto carbon-coated copper grids (Sigma) for 3 min, stained with 1.5% uracyl acetate. The samples were photographed using Tecani Spirit BioTWIN microscope at 120kV, and images were processed by iTEM program. […]

C-reactive protein (CRP) = biological target: T1, C-reactive protein (CRP) (Homo sapiens, UniProt P02741); test: PM-IRRAS of protein-peptide complex on gold; type: binding; conditions: complex immobilized on gold; peptide 100 μg mL-1, CRP 50 μg mL-1 in PBS
T1 construct: purchased Biorbyt (UK)
T1 sequence (P02741 19-224): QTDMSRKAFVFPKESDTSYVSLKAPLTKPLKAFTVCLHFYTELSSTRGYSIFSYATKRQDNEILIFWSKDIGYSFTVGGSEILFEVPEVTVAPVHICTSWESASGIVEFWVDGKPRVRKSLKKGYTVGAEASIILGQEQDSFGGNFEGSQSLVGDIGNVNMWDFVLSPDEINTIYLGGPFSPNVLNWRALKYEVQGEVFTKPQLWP
Experimental: as §1, §2, §3

C-reactive protein [3] = biological target: T2, C-reactive protein (human, UniProt P02741 19-224); test: differential pulse voltammetry (electrochemical); P3 peptide covalently immobilised on TESPSA-silanised ITO, blocked with 1% BSA; 20 uL protein in PBS pH 7.4 for 30 min at room temperature; 1 mM Fc(CH2OH)2 in PBS as redox probe; drop of peak current fitted with the Hill equation, Kd = KA^n; conditions: both partners purified
T2 construct: C-reactive protein (CRP), cyclic pentamer of five identical, noncovalently connected subunits of 206 amino acids each (printed); PDB 3PVO was used only for docking; also called CRP
T2 sequence (looked up): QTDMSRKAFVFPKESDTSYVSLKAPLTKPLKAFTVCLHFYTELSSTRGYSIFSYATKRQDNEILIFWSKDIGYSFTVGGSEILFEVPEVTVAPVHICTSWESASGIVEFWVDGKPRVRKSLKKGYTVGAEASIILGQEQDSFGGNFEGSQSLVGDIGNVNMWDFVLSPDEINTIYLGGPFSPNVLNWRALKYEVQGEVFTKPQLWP

C-reactive protein [4] = biological target: T2, C-reactive protein; test: ELISA; phage clones on CRP, phages detected by the enzymatic reaction of tagged anti-M13 antibodies, absorbance at 450 nm, compared with WT phage
C-reactive protein [5] = biological target: T2, C-reactive protein; test: PM-IRRAS; peptides immobilised on gold plates; spectra of peptide, CRP and the protein-peptide complex compared; conditions: both partners purified
[6] = immobilized on gold, assuming helical conformation

Molecule: GGSDPEGMQGNY [P2]
- secondary structure on gold (in words) [1]: higher amount of disordered structures in the secondary structure
- orientation of helix axis (in words) [1, 6]: nearly parallel to the gold surface
- amide I band position ([1]; peptide immobilized on gold): 1674 cm–1
- fiber structure of peptide (in words) [2]: loose fibers, which are unordered and without forming a specific structure
- peptide-CRP complex by PM-IRRAS (in words) (C-reactive protein (CRP)): the P2-CRP complex is formed, but the effect of the P2 on the CRP secondary structure is different compared to P9

Molecule: SWFSDWDLELHA [P9]
- secondary structure on gold (in words) [1]: presence of β-sheets; also recorded: contains β and α or disordered peptide chains
- angle between the helical axis and the surface [1, 6]: about 48 °
- fiber structure of peptide (in words) [2]: The fibers self-assemble into unique structures called twisted nanoribbons
- peptide-CRP complex by PM-IRRAS (in words) (C-reactive protein (CRP)): the secondary structure of the complex may be affected

B1: P3 peptide (peptide)
peptide: VHWDFRQWWQPS
notes: 12-mer identified by phage display against CRP; immobilised on gold plates for PM-IRRAS, whose method is in the Supporting Information; also called peptide P3; source: synthetic peptide
- Kd (C-reactive protein [3]): 35 ± 1.2 nM

B2: P9 clone (M13 phage exposing the P9 peptide) (other)
chain: SWFSDWDLELHA
notes: peptide exposed on the M13 phage clone P9; also called P9 phage; source: M13 bacteriophage clone from phage display; not shown: M13 bacteriophage (peptide exposed on the phage)
- ELISA signal, fold over WT phage (C-reactive protein [4]): 16 fold

B3: P3 clone (M13 phage exposing the P3 peptide) (other)
chain: VHWDFRQWWQPS
notes: peptide exposed on the M13 phage clone P3; the library is described in the Supporting Information; also called P3 phage; source: M13 bacteriophage clone from phage display; not shown: M13 bacteriophage (peptide exposed on the phage)
- ELISA signal, fold over WT phage (C-reactive protein [4]): 13 fold

B4: P2 peptide (peptide)
peptide: GGSDPEGMQGNY
notes: 12-mer identified by phage display against CRP; Immobilised on gold plates for PM-IRRAS; method is in the Supporting Information; also called peptide P2; source: synthetic peptide
- binding result (C-reactive protein [5]): binds
